# Experimental data published in PubChem BioAssay (NCI).
#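 Tested at 5 concentrations; 48 h exposure; 96-well plates; endpoints linearly interpolated, else capped at highest concentration. GI50 is the concentration that inhibits growth by half. At the TGI there is no net growth.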
# Columns and labels:
# Assay in all cases: NCI anticancer screen, dose series, 48 h
# IGROV1 ovarian = test system: IGROV1 ovarian
# CAKI-1 renal = test system: CAKI-1 renal
# OVCAR-8 ovarian = test system: OVCAR-8 ovarian
# SNB-75 CNS = test system: SNB-75 CNS
# UACC-257 melanoma = test system: UACC-257 melanoma
# OVCAR-5 ovarian = test system: OVCAR-5 ovarian
# 786-0 renal = test system: 786-0 renal
# HT29 colon = test system: HT29 colon
# XF 498 CNS = test system: XF 498 CNS
Compound,GI50 (IGROV1 ovarian) [µM],TGI (IGROV1 ovarian) [µM],GI50 (CAKI-1 renal) [µM],TGI (CAKI-1 renal) [µM],GI50 (OVCAR-8 ovarian) [µM],TGI (OVCAR-8 ovarian) [µM],GI50 (SNB-75 CNS) [µM],TGI (SNB-75 CNS) [µM],GI50 (UACC-257 melanoma) [µM],TGI (UACC-257 melanoma) [µM],GI50 (OVCAR-5 ovarian) [µM],TGI (OVCAR-5 ovarian) [µM],GI50 (786-0 renal) [µM],TGI (786-0 renal) [µM],GI50 (HT29 colon) [µM],TGI (HT29 colon) [µM],TGI (XF 498 CNS) [µM]
COc1ccc(/C=C2/SC(=Nc3c(C)nn(-c4ccccc4)c3N)NC2=O)cc1,5.2,28.8,2.82,15.7,13.7,77.9,3.43,26.7,6.63,65.6,10.9,63.2,6.94,89.4,3.8,16.6,
O=c1c(Cl)nsnc1Cl,,32.4,,37.3,,> 91.6,,> 53.1,,26.8,,38.6,,3.32,,60.2,
O=C(CCCCCCc1nc2ccc(Br)cc2[nH]1)NO,0.523,2.45,0.461,1.54,0.275,16,0.419,> 100,0.354,7.17,0.568,22.3,1.03,10.7,0.291,,
Nc1nc2nc3c(nc2c(=O)[nH]1)CN(c1ccc(C(=O)O)cc1)C3=O,,> 100,,> 100,,> 100,,> 100,,> 100,,> 100,,> 100,,> 100,
CCCCNC(=S)Nn1c(-c2ccccc2)nc2ccccc2c1=O,,> 100,,> 100,,> 100,,> 100,,> 100,,> 100,,> 100,,> 100,
CN(C)CCCn1cnc2ncccc2c1=O,,> 100,,> 100,,> 100,,> 100,,,,> 100,,> 100,,> 100,> 100
Cc1cc2c(-c3nc4ccccc4[nH]3)c(O)c(O)cc2c(O)c1-c1c(C)cc2c(-c3nc4ccccc4[nH]3)c(O)c(O)cc2c1O,0.0416,> 23.1,0.0496,0.628,0.0664,> 50,0.0389,2.11,0.136,16.2,0.0852,> 20.3,0.0801,1.01,0.0217,> 24.4,
COCCNC(=O)C1C(=O)N(CCOC)C(=O)/C1=N/N (centres undefined),,> 100,,> 100,,,,> 100,,> 100,,,,> 100,,> 100,> 100
C=C1C(=O)O[C@@H]2[C@@H]3O[C@@](C)(CC/C=C(\C)CCC[C@@H]2C)[C@H](O)C[C@@H]13,2.06,5.78,1.73,4.5,1.76,5.85,2.58,13.4,1.29,4.27,,26.7,7.02,20.3,2.41,6.71,
CCCCN(CCCC)C(=Nc1ccccc1)N(CCCC)CCCC,,23.1,,,,24.9,,37.7,,37.5,,27.8,,15.2,,> 100,5.95
